Measurements from PubChem BioAssay (NCI).
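Grown in 96-well plates, cells were treated for 48 hours with each compound at five concentrations. Insufficient inhibition: endpoint recorded as highest concentration tested. The concentration for full growth arrest is given as TGI.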

Columns and labels:
Assay in all cases: NCI tumour cell line growth inhibition, 48 h
DMS 273 small cell lung = system: DMS 273 small cell lung
SNB-78 CNS = system: SNB-78 CNS
DLD-1 colon = system: DLD-1 colon
MCF7 breast = system: MCF7 breast
P388/ADR leukemia = system: P388/ADR leukemia
P388 leukemia = system: P388 leukemia
SN12K1 renal = system: SN12K1 renal
XF 498 CNS = system: XF 498 CNS
RXF-631 renal = system: RXF-631 renal

CNC(=O)OCc1nc(SC(C)C)n(C)c1COC(=O)NC
TGI (DMS 273 small cell lung): > 100 µM | TGI (SNB-78 CNS): > 100 µM | TGI (DLD-1 colon): > 100 µM | TGI (MCF7 breast): > 100 µM | TGI (P388/ADR leukemia): > 100 µM | TGI (P388 leukemia): > 100 µM | TGI (SN12K1 renal): > 100 µM

O=[N+]([O-])c1ccc(-c2ccc(/C=N/n3c(-c4ccc(Cl)cc4)n[nH]c3=S)o2)cc1
TGI (DMS 273 small cell lung): > 63.3 µM | TGI (SNB-78 CNS): > 70.3 µM | TGI (DLD-1 colon): > 100 µM | TGI (XF 498 CNS): 46.6 µM | TGI (RXF-631 renal): > 55.5 µM

CC(=O)Oc1c(C)n(CCCl)ccc1=O
TGI (DMS 273 small cell lung): > 100 µM | TGI (SNB-78 CNS): > 100 µM | TGI (DLD-1 colon): > 100 µM | TGI (XF 498 CNS): > 100 µM | TGI (RXF-631 renal): > 100 µM

C/C(=N\N(C)C)c1sc(-n2nc(-c3ccccc3)cc2-c2ccccc2)nc1C
TGI (DMS 273 small cell lung): > 100 µM | TGI (SNB-78 CNS): > 100 µM | TGI (DLD-1 colon): > 100 µM | TGI (XF 498 CNS): > 100 µM | TGI (RXF-631 renal): > 100 µM
